# Like-named read-outs stand apart in the source and are kept apart here.
# Assays:
# [1] = target: T1, hCB1R (Homo sapiens, UniProt P21554); assay: cell-based; assay type: cell-based
# T1 construct: host or cells: CHO
# [2] = target: T2, AT1 (h) (Homo sapiens, UniProt P30556); assay: CEREP panel; assay type: binding; conditions: for % inhibition AT1 (h): 10 µM
# T2 construct: CEREP
# T2 sequence (P30556 1-359): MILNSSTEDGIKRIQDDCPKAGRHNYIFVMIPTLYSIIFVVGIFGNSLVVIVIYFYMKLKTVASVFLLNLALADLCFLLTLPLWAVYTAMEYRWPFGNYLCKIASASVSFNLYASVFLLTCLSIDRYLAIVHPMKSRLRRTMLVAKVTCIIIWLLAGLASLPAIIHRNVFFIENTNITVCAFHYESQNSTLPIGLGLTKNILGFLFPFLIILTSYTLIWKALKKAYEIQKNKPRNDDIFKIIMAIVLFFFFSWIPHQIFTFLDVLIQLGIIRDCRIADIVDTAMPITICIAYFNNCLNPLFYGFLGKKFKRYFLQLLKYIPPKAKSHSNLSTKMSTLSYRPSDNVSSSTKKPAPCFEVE
# [3] = target: T3, hCB2R (Homo sapiens, UniProt P34972); assay: biochemical; assay type: binding
# T3 sequence (P34972 whole entry): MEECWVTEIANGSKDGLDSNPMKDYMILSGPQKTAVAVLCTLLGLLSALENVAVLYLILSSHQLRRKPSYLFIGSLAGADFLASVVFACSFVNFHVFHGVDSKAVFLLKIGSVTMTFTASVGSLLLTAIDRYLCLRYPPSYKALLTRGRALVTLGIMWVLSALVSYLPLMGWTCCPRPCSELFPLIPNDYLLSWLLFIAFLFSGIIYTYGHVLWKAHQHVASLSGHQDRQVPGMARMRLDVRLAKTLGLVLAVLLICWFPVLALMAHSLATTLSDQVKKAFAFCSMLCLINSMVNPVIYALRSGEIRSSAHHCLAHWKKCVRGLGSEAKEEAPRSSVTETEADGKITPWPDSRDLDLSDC
# [4] = target: T4, Rat recombinant TRPV3 (Rattus norvegicus, UniProt Q4QYD9); assay: cell-based; assay type: cell-based; conditions: for IC50: vs thymol 100μM, read-out: TRPV3 IC50 for antagonism or desensitization
# T4 construct: expressed in transfected cells; host or cells: HEK293 (TRPV3-HEK-293, gift from HB Bradshaw, Indiana University)
# T4 sequence (Q4QYD9 1-791): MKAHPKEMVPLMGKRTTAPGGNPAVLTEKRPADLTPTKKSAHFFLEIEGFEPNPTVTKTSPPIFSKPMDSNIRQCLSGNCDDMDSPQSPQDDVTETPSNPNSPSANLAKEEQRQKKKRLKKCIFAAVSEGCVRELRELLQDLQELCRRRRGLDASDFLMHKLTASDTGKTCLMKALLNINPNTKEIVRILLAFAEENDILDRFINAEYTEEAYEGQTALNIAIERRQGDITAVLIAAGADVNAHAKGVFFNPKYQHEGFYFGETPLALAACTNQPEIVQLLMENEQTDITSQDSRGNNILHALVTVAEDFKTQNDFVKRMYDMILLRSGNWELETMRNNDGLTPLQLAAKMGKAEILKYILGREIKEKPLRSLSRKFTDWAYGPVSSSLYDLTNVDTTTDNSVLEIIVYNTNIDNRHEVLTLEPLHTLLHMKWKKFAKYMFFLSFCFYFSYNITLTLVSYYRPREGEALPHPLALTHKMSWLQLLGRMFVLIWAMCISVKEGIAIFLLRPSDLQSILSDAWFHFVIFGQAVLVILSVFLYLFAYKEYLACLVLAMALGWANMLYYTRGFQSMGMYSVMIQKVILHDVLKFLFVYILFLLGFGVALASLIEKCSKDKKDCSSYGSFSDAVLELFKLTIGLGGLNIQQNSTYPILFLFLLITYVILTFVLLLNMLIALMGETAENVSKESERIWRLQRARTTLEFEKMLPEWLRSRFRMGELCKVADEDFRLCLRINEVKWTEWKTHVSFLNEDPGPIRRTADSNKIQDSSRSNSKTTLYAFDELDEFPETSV
# [5] = system: BZD (central); assay type: binding; conditions: 10 µM
# [6] = target: T1, hCB1R; assay: cell-based; assay type: cell-based; remark: listed apart in the source
# [7] = target: T1, hCB1R; assay: biochemical; assay type: binding
# [8] = target: T3, hCB2R; design: expressed in transfected cells; host or cells: Flp-In-293 (Invitrogen #R750-07), pcDNA5/FRT
# [9] = target: T5, beta 1 (h) (Homo sapiens, UniProt P08588); assay: biochemical; assay type: binding; conditions: for % inhibition beta 1 (h): 10 µM
# T5 construct: CEREP
# T5 sequence (P08588 whole entry): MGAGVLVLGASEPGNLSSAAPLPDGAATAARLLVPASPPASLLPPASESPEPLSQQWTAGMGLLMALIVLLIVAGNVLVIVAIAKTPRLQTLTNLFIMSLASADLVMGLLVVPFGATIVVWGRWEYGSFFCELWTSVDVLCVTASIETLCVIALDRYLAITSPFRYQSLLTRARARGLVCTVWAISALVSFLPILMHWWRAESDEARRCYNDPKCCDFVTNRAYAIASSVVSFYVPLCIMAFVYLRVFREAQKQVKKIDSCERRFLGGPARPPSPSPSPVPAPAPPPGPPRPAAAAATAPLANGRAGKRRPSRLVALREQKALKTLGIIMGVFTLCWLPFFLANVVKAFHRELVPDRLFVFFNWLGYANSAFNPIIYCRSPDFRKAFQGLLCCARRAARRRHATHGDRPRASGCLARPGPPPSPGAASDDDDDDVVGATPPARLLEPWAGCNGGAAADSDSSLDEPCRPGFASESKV
# [10] = system: AEA cellular uptake in U937 cells; assay: cells; assay type: cell-based, human; conditions: for AEA reuptake Efficacy (% inhibition) U937 cells: from dose-response
# [11] = CHO membranes, Leiden, HU210 and SR144528 from Roche
# [12] = read-out: AEA reuptake IC50 (95% CI) U937 cells
# T1 sequence (P21554 whole entry): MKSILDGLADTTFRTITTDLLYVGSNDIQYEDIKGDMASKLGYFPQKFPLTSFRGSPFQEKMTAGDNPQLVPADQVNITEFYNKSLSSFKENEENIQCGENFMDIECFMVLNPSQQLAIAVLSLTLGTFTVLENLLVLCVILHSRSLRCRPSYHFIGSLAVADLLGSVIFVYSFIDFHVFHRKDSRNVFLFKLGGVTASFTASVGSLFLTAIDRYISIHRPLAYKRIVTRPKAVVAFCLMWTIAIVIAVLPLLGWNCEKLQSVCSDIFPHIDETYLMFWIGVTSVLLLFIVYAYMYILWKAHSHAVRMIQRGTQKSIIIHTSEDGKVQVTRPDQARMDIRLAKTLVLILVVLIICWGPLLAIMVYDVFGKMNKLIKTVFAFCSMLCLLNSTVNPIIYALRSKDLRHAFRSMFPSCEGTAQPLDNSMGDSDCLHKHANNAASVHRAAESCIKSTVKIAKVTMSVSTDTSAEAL
compound,measurement,setting,value
CCCC(C)(C)c1ccc2c(c1)OC(C)(C)[C@@H]1CC=C(C)C[C@@H]21 [JWH133],Emax ± SEM GIRK hCB1R,[1],5 ± 1
same,pEC50 ± SEM GIRK hCB1R,[1],< 5
same,% inhibition AT1 (h),[2],7%
same,"CB2R Selectivity (binding, human)",[3],153 fold
same,pKi ± SEM hCB2R,[3],7.18 ± 0.34
same,TRPV3 Efficacy (% ionomycin 4μM),[4],< 10%
same,IC50,[4],80.6 µM
same,% inhibition BZD (central),[5],-22%
same,Emax ± SEM β-AR recruitment hCB1R,[6],40 ± 7
same,pEC50 ± SEM β-AR recruitment hCB1R,[6],5.37 ± 0.05
same,pKi ± SEM hCB1R,[7],< 5
same,GIRK-GTPγS bias factor (BF),[8],1.32
same,GIRK-GTPγS ΔΔlogR,[8],0.12 ± 0.57
same,GIRK-cAMP bias factor (BF),[8],3.54
same,GIRK-cAMP ΔΔlogR,[8],0.55 ± 0.42
same,GTPγS-cAMP bias factor (BF),[8],2.67
same,GTPγS-cAMP ΔΔlogR,[8],0.43 ± 0.40
same,LogR GIRK,[8],5.98
same,LogR GTPγS,[8],6.27
same,LogR cAMP,[8],8.28
same,LogR pERK,[8],7.07
same,LogR β-AR,[8],8.02
same,RE GIRK,[8],0.01
same,RE GTPγS,[8],0.01
same,RE cAMP,[8],0.004
same,RE pERK,[8],0.01
same,RE β-AR,[8],0.33
same,pERK-GIRK bias factor (BF),[8],0.84
same,pERK-GIRK ΔΔlogR,[8],-0.08
same,pERK-GTPγS bias factor (BF),[8],1.11
same,pERK-GTPγS ΔΔlogR,[8],0.05 ± 0.46
same,pERK-cAMP bias factor (BF),[8],2.97
same,pERK-cAMP ΔΔlogR,[8],0.47 ± 0.26
same,ΔLogR GIRK,[8],-1.89
same,ΔLogR GTPγS,[8],-2.01
same,ΔLogR cAMP,[8],-2.44
same,ΔLogR pERK,[8],-1.96
same,ΔLogR β-AR,[8],-0.48
same,β-AR-GIRK bias factor (BF),[8],25.53
same,β-AR-GIRK ΔΔlogR,[8],1.41 ± 0.43
same,β-AR-GTPγS bias factor (BF),[8],33.81
same,β-AR-GTPγS ΔΔlogR,[8],1.53 ± 0.41
same,β-AR-cAMP bias factor (BF),[8],90.36
same,β-AR-cAMP ΔΔlogR,[8],1.96 ± 0.15
same,β-AR-pERK bias factor (BF),[8],30.41
same,β-AR-pERK ΔΔlogR,[8],1.48 ± 0.27
same,% inhibition beta 1 (h),[9],-7%
Cc1ccc2c(c1)Cc1c(C(=O)NN3CCCCC3)nn(-c3ccc(Cl)cc3Cl)c1-2 [Gp-1a],pEC50 ± SEM GIRK hCB1R,[1],5.26 ± 0.1
same,% inhibition AT1 (h),[2],20%
same,pKi ± SEM hCB2R,[3]; [11],7.66 ± 0.11
same,AEA reuptake Efficacy (% inhibition) U937 cells,[10],64%
same,IC50,[10]; [12],1.26 µM
same,TRPV3 Efficacy (% ionomycin 4μM),[4],< 10%
same,IC50,[4],22.6 µM
same,% inhibition BZD (central),[5],-10%
same,Emax ± SEM β-AR recruitment hCB1R,[6],-83 ± 7
same,pEC50 ± SEM β-AR recruitment hCB1R,[6],< 5
same,pKi ± SEM hCB1R,[7]; [11],6.97 ± 0.35
same,% inhibition beta 1 (h),[9],30%
CN1CCCC[C@@H]1Cn1cc(C(=O)c2cc([N+](=O)[O-])ccc2I)c2ccccc21 [(R)-AM1241],pEC50 ± SEM GIRK hCB1R,[1],5.00 ± 0.1
same,Emax ± SEM GIRK hCB1R,[1]; normalized to CP55940,51 ± 3%
same,"CB2R Selectivity (binding, human)",[3]; 10^(pKi CB2R-pKi CB1R),38 fold
same,pKi ± SEM hCB2R,[3]; [11],8.44 ± 0.25
same,AEA reuptake Efficacy (% inhibition) U937 cells,[10],77%
same,IC50,[10]; [12],4.81 µM
same,TRPV3 Efficacy (% ionomycin 4μM),[4],12.9%
same,EC50,[4]; read-out: TRPV3 Potency EC50,10 µM
same,IC50,[4],> 50 µM
same,Emax ± SEM β-AR recruitment hCB1R,[6],26 ± 2
same,pEC50 ± SEM β-AR recruitment hCB1R,[6],5.59 ± 0.13
same,pKi ± SEM hCB1R,[7]; [11],6.86 ± 0.46
same,GIRK-GTPγS bias factor (BF),[8]; hCB2R,0.04
same,GIRK-GTPγS ΔΔlogR,[8]; hCB2R,-1.39
same,LogR GIRK,[8]; hCB2R,5.48
same,LogR GTPγS,[8]; hCB2R,7.3
same,LogR pERK,[8]; hCB2R,8.12
same,LogR β-AR,[8]; hCB2R,7.21
same,pERK-GIRK bias factor (BF),[8]; hCB2R,29.32
same,pERK-GIRK ΔΔlogR,[8]; hCB2R,1.47 ± 0.37
same,pERK-GTPγS bias factor (BF),[8]; hCB2R,1.18
same,pERK-GTPγS ΔΔlogR,[8]; hCB2R,0.07 ± 0.55
same,β-AR-GIRK bias factor (BF),[8]; hCB2R,12.13
same,β-AR-GIRK ΔΔlogR,[8]; hCB2R,1.08 ± 0.36
same,β-AR-GTPγS bias factor (BF),[8]; hCB2R,0.49
same,β-AR-GTPγS ΔΔlogR,[8]; hCB2R,-0.31 ± 0.54
same,β-AR-pERK bias factor (BF),[8]; hCB2R,0.41
same,β-AR-pERK ΔΔlogR,[8]; hCB2R,-0.38 ± 0.39
same,ΔLogR GIRK,"[8]; hCB2R, reference CP55940",-2.38
same,ΔLogR GTPγS,"[8]; hCB2R, reference CP55940",-0.99
same,ΔLogR pERK,"[8]; hCB2R, reference CP55940",-0.91
same,ΔLogR β-AR,"[8]; hCB2R, reference CP55940",-1.30
same,RE GIRK,"[8]; hCB2R, relative effectiveness",0.004
same,RE GTPγS,"[8]; hCB2R, relative effectiveness",0.10
same,RE pERK,"[8]; hCB2R, relative effectiveness",0.12
same,RE β-AR,"[8]; hCB2R, relative effectiveness",0.05
CCCCCCC(C)(C)c1cc(OC)c([C@@H]2C=C(CO)[C@@H]3C[C@H]2C3(C)C)c(OC)c1 [HU308],EC50,[1],> 10 µM
same,Emax,"[1]; AtT20, read-out: Emax ± SEM GIRK hCB1R",15 ± 10%
same,inhibition at 10 µM,[2]; read-out: % inhibition AT1 (h),53%
same,IC50,"[10]; Homo sapiens, U-937, read-out: AEA reuptake IC50 (95% CI) U937 cells",1.81 µM
same,AEA reuptake Efficacy (% inhibition) U937 cells,[10],62%
same,TRPV3 Efficacy (% ionomycin 4μM),[4],< 10%
same,IC50,[4],> 100 µM
same,% inhibition BZD (central),[5],-26%
same,EC50,[6],> 10 µM
same,Emax,[6]; read-out: Emax ± SEM β-AR recruitment hCB1R,5 ± 1%
same,Ki,[7],> 10 µM
same,GIRK-GTPγS bias factor (BF),[8]; hCB2R,0.56
same,GIRK-GTPγS ΔΔlogR,[8]; hCB2R,-0.26
same,GIRK-cAMP bias factor (BF),[8]; hCB2R,4.33
same,GIRK-cAMP ΔΔlogR,[8]; hCB2R,0.64 ± 0.17
same,GTPγS-cAMP bias factor (BF),[8]; hCB2R,7.78
same,GTPγS-cAMP ΔΔlogR,[8]; hCB2R,0.89 ± 0.30
same,LogR GIRK,[8]; hCB2R,6.281
same,LogR GTPγS,[8]; hCB2R,6.95
same,LogR cAMP,[8]; hCB2R,8.49
same,LogR pERK,[8]; hCB2R,7.55
same,LogR β-AR,[8]; hCB2R,7.72
same,pERK-GIRK bias factor (BF),[8]; hCB2R,1.25
same,pERK-GIRK ΔΔlogR,[8]; hCB2R,0.1 ± 0.3
same,pERK-GTPγS bias factor (BF),[8]; hCB2R,0.70
same,pERK-GTPγS ΔΔlogR,[8]; hCB2R,-0.16
same,pERK-cAMP bias factor (BF),[8]; hCB2R,5.42
same,pERK-cAMP ΔΔlogR,[8]; hCB2R,0.73 ± 0.27
same,β-AR-GIRK bias factor (BF),[8]; hCB2R,6.37
same,β-AR-GIRK ΔΔlogR,[8]; hCB2R,0.80 ± 0.19
same,β-AR-GTPγS bias factor (BF),[8]; hCB2R,3.54
same,β-AR-GTPγS ΔΔlogR,[8]; hCB2R,0.55 ± 0.32
same,β-AR-cAMP bias factor (BF),[8]; hCB2R,27.16
same,β-AR-cAMP ΔΔlogR,[8]; hCB2R,1.43 ± 0.16
same,β-AR-pERK bias factor (BF),[8]; hCB2R,5.08
same,β-AR-pERK ΔΔlogR,[8]; hCB2R,0.71 ± 0.29
same,ΔLogR GIRK,"[8]; hCB2R, reference CP55940",-1.58
same,ΔLogR GTPγS,"[8]; hCB2R, reference CP55940",-1.33
same,ΔLogR cAMP,"[8]; hCB2R, reference CP55940",-2.22
same,ΔLogR pERK,"[8]; hCB2R, reference CP55940",-1.48
same,ΔLogR β-AR,"[8]; hCB2R, reference CP55940",-0.78
same,RE GIRK,"[8]; hCB2R, relative effectiveness",0.03
same,RE GTPγS,"[8]; hCB2R, relative effectiveness",0.05
same,RE cAMP,"[8]; hCB2R, relative effectiveness",0.006
same,RE pERK,"[8]; hCB2R, relative effectiveness",0.03
same,RE β-AR,"[8]; hCB2R, relative effectiveness",0.17
same,inhibition at 10 µM,[9]; read-out: % inhibition beta 1 (h),-11%

# Source: PMC5216056 (Nature Communications, 2017)
